Key:
α9α10 nAChR = α9α10 nAChR (Rattus norvegicus, UniProt P43144+Q9JLB5); assay type: cell-based
α1β1δε nAChR (muscle) = α1β1δε nAChR (muscle) (Homo sapiens, UniProt P02708+P11230+Q04844+Q07001); assay type: cell-based
[1] = tested on: CCI-induced mechanical hypersensitivity; set-up: species or system male Sprague-Dawley rats; conditions: rat, in vivo

Chain of α9α10 nAChR (P43144 26-479 limits assumed): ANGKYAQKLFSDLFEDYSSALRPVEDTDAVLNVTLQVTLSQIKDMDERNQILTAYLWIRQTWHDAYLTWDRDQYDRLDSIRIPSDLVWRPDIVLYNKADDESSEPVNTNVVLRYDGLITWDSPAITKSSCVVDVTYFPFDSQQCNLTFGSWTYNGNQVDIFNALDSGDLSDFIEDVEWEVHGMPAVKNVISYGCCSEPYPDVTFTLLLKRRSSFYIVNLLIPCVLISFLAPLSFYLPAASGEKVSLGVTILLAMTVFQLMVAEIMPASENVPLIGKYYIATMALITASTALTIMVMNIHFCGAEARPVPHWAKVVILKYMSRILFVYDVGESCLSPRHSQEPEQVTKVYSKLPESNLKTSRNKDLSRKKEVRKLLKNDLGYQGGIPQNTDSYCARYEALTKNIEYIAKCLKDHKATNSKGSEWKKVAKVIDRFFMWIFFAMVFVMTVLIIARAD
Chain of α9α10 nAChR (Q9JLB5 25-447 limits assumed): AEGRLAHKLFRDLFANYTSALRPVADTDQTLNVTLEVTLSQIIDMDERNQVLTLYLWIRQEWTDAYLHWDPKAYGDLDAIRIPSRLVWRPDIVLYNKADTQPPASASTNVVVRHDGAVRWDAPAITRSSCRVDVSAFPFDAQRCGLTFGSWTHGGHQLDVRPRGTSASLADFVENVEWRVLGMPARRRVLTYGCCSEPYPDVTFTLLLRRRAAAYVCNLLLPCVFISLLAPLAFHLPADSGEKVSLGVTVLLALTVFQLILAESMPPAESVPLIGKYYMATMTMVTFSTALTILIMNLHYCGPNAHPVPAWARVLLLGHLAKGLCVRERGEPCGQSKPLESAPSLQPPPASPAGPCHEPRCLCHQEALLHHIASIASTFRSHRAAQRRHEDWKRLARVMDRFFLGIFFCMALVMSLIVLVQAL
Chain of α1β1δε nAChR (muscle) (P02708 21-457 limits assumed): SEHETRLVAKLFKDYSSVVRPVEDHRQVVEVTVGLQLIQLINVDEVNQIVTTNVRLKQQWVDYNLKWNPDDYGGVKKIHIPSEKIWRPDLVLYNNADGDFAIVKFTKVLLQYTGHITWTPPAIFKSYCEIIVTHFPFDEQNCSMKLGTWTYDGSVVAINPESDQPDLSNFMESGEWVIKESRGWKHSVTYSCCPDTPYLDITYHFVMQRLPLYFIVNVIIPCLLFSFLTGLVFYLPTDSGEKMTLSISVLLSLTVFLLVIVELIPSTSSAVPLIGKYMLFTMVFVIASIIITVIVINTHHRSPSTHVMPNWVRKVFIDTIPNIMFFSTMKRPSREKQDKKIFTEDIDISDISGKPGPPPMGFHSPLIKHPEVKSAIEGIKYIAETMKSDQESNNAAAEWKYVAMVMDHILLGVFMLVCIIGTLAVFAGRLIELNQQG
Chain of α1β1δε nAChR (muscle) (P11230 24-501 limits assumed): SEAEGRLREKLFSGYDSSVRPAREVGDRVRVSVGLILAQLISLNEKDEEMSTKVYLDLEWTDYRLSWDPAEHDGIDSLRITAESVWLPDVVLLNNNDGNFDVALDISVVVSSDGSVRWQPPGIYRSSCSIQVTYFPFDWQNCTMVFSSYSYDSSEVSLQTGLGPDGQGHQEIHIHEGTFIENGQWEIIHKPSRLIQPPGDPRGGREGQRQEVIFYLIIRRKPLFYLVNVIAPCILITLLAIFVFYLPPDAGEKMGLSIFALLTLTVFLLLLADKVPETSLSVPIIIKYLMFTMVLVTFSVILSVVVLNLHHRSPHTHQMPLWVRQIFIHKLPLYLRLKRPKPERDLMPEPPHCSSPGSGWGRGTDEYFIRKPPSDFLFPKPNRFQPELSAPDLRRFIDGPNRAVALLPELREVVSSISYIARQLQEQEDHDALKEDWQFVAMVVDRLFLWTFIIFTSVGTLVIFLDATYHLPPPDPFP
Chain of α1β1δε nAChR (muscle) (Q07001 22-517 limits assumed): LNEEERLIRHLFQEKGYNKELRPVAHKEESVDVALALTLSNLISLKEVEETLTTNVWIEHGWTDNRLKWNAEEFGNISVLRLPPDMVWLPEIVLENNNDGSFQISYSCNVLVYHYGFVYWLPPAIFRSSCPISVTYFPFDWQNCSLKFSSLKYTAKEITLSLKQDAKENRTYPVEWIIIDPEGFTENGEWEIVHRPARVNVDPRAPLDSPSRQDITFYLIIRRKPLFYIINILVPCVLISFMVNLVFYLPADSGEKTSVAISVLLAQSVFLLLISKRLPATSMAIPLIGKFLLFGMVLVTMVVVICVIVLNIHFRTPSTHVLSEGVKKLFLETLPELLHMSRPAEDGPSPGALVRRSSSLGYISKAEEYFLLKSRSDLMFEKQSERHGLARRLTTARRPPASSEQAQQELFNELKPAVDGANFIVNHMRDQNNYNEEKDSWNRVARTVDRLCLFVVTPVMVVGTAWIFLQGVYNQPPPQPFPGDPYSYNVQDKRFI
Chain of α1β1δε nAChR (muscle) (Q04844 21-493 limits assumed): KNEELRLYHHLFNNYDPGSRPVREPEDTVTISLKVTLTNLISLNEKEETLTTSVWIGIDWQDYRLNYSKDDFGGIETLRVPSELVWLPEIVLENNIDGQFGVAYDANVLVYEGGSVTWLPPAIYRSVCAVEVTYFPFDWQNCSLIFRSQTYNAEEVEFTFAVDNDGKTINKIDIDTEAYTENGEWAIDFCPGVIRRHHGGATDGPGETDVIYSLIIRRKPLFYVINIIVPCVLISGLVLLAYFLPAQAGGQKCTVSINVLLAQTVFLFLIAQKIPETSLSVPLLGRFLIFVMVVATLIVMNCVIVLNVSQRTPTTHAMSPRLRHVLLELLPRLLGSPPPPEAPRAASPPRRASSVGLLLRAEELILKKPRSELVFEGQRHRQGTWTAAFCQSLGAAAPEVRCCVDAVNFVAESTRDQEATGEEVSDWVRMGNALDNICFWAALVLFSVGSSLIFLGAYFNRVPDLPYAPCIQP

Substance: α-conotoxin RgIA
- Hill slope (α9α10 nAChR): 1.13±0.11
- IC50 (α9α10 nAChR): 0.0048 µM
- Hill slope (α1β1δε nAChR (muscle)): 0.931±0.40
- IC50 (α1β1δε nAChR (muscle)): 16.1 µM
- increase of paw withdrawal thresholds ipsilateral to sciatic nerve ligation [1]: 65±17%
- time to significant increase of PWT ipsilateral to CCI [1]: 3 to 4 h

From patent US9717775B2 (priority 2006, dated 2017)
